In ChEMBL document CHEMBL1135713, “Antitumor benzothiazoles. 16. Synthesis and pharmaceutical properties of antitumor 2-(4-aminophenyl)benzothiazole amino acid prodrugs” (J Med Chem, 2002):

Assays:
[1] = The compound was tested for its solubility at a pH of 6.3; type: ADME; conditions: pH 6.3; read-out: S
[2] = The compound was tested for its solubility at a pH of 10.5; type: ADME; conditions: pH 10.5; read-out: S
[3] = The compound was tested for its solubility at a pH of 8.5; type: ADME; conditions: pH 8.5; read-out: S
[4] = The compound was tested for its solubility at a pH of 5.0; type: ADME; conditions: pH 5; read-out: S
[5] = The compound was tested for its solubility at a pH of 9.6; type: ADME; conditions: pH 9.6; read-out: S
[6] = The compound was tested for its solubility at a pH of 7.4; type: ADME; conditions: pH 7.4; read-out: S
[7] = Delta logP; type: ADME; conditions: octanol/water
[8] = log P value in cyclohexane:buffer at pH 7.4; type: physicochemical

SMILES | solubility [1] [µg/mL] | solubility [2] [µg/mL] | solubility [3] [µg/mL] | solubility [4] [µg/mL] | solubility [5] [µg/mL] | solubility [6] [µg/mL] | delta logP [7] | logD [8]
Cc1cc(-c2nc3cc(F)ccc3s2)ccc1NC(=O)[C@@H](N)CCCCN.Cl.Cl | 7000 | 10 | 75 | > 53200 | 20 | 390 | – | –
Cc1cc(-c2nc3ccccc3s2)ccc1N | – | – | – | – | – | – | 1.45 | 2.51
